From patent US20110039763A1, “TARGETED ANTIMICROBIAL MOIETIES” (C3 JIAN, INC., priority 2009, published 2011)

How the values were obtained:
microorganisms [1] = test: Peptide activities: targeting/binding, antimicrobial, growth or phenotype altering (Tables 7, 8); type: cell-based; settings: peptides having multiple activities
From the text: In certain embodiments, peptides described herein can have multiple activities. Thus for example, a peptide can have both binding/targeting activity and antimicrobial activity. Such peptides can be used, e.g., in a chimeric construct, for any or all of these properties. Thus, for example, a peptide designated “B” in Table 8 can be used as a targeting peptide. If it is also designated G or M it can also be used for antimicrobial activity.
Table 8. Peptides Having Multiple Activities. B: Targeting/Binding Activity; M: Antimicrobial Activity; G: GROWTH or Phenotype Altering.

microorganisms [2] = test: Morphology, biofilm and growth disrupting peptides (Table 5); type: cell-based; design: key: A: Peptide aggregates; B: Less hyphal formation; Clumps; Diffuse clumps and small polyps; F: Diffuse growth; H: Thin; I: Growth inhibition; Microcolony formation; Rippled; Small polyps; Thick; W: Halo formation on top, microlonies on bottom
From the text: In certain embodiments peptides that induce alterations in phenotype or other biological activities can also be used as antimicrobial effector moieties.

| Substance | Activities (microorganisms [1]) | Organism, effect (microorganisms [2]; MRSA) | Organism, effect (microorganisms [2]; S. pneumoniae) | Organism, effect: C. jejuni (microorganisms [2]; C. jejuni) | Organism, effect: E. coli (microorganisms [2]; E. coli) | Organism, effect: E. faecalis (microorganisms [2]; E. faecalis) | Organism, effect: MRSA (microorganisms [2]; MRSA) | Organism, effect: S. epidermidis (microorganisms [2]; S. epidermidis) | Organism, effect: S. pneumoniae (microorganisms [2]; S. pneumoniae) | Organism, effect: C. jeikeium (microorganisms [2]; C. jeikeium) | Organism, effect: M. luteus (microorganisms [2]; M. luteus) | other results |
| --- | --- | --- | --- | --- | --- | --- | --- | --- | --- | --- | --- | --- |
| PF-439: peptide having multiple activities (chain 1 RVLVLKKFHGIMDGNRNVAVFFVGQ; chain 2 RVLVLKKFHGIMDGNRNVAVFFVGQ; Peptide with targeting and/or antimicrobial activity) | G B | MRSA (M) | S. pneumoniae (R) | – | – | – | – | – | – | – | – | Organism, effect (microorganisms [2]; E. coli): E. coli (R); Organism, effect (microorganisms [2]; E. faecalis): E. faecalis (C); Organism, effect (microorganisms [2]; S. epidermidis): S. epidermidis (C) |
| PF-418: peptide having multiple activities (chain 1 FFLVHFYIRKRKGKVSIFLNYF; chain 2 FFLVHFYIRKRKGKVSIFLNYF; Peptide with targeting and/or antimicrobial activity) | G B | – | – | C. jejuni (D) | E. coli (C) | E. faecalis (D) | MRSA (D) | S. epidermidis (M) | S. pneumoniae (D) | – | – | – |
| PF-145: peptide having multiple activities (chain 1 GIVLTGRAGLVSGACSMALGVGLG; chain 2 GIVLTGRAGLVSGACSMALGVGLG; Peptide with targeting and/or antimicrobial activity) | G B | – | – | C. jejuni (R) | – | – | MRSA (M) | S. epidermidis (D) | S. pneumoniae (R) | C. jeikeium (R) | M. luteus (A) | Organism, effect: B. subtilis (microorganisms [2]; B. subtilis): B. subtilis (C) |
| PF-140: peptide having multiple activities (chain 1 FHRRVIRASEWALTTRSFSTPLRSAAR; chain 2 FHRRVIRASEWALTTRSFSTPLRSAAR; Peptide with targeting and/or antimicrobial activity) | G B | – | – | C. jejuni (D) | – | – | MRSA (M) | S. epidermidis (D) | S. pneumoniae (D) | C. jeikeium (D) | M. luteus (R) | Organism, effect: C. albicans (microorganisms [2]; C. albicans): C. albicans (B); Organism, effect: P. aeruginosa (microorganisms [2]): P. aeruginosa (A) |
| PF-399: peptide having multiple activities (chain 1 FPIISALLGAIICIAIYSFIVNRKA; chain 2 FPIISALLGAIICIAIYSFIVNRKA; Peptide with targeting and/or antimicrobial activity) | G B | – | – | – | E. coli (C) | E. faecalis (C) | MRSA (C) | S. epidermidis (C) | – | – | – | – |
| PF-347: peptide having multiple activities (GIFTGVTVVVSLKHC; Peptide with targeting and/or antimicrobial activity) | G B | – | – | – | E. coli (C) | E. faecalis (C) | MRSA (C) | S. epidermidis (C) | – | – | – | – |
| PF-407: peptide having multiple activities (chain 1 KPKNKKEKTVISYEKLLSMY; chain 2 KPKNKKEKTVISYEKLLSMY; Peptide with targeting and/or antimicrobial activity) | G B | – | – | – | – | E. faecalis (R) | MRSA (C) | S. epidermidis (M) | S. pneumoniae (R) | – | – | – |
| PF-450: peptide having multiple activities (HRNLIILQRTIFI; Peptide with targeting and/or antimicrobial activity) | G B | MRSA (C) | S. pneumoniae (C) | – | – | – | – | – | – | – | – | Organism, effect (microorganisms [2]; E. faecalis): E. faecalis (C) |
| PF-548: peptide having multiple activities (ARPIADLIHFNSTTVTASGDVYYGPG; Peptide with targeting and/or antimicrobial activity) | G B | MRSA (M) | S. pneumoniae (D) | – | – | – | – | – | – | – | – | Organism, effect (microorganisms [2]; B. subtilis): B. subtilis (C); Organism, effect (microorganisms [2]; C. jeikeium): C. jeikeium (R); Organism, effect (microorganisms [2]; C. jejuni): C. jejuni (D); Organism, effect (microorganisms [2]; M. luteus): M. luteus (A); Organism, effect (microorganisms [2]; S. epidermidis): S. epidermidis (M) |
| PF-355: peptide having multiple activities (chain 1 WIAIGLLLYFSLKNQ; chain 2 WIAIGLLLYFSLKNQ; Peptide with targeting and/or antimicrobial activity) | G B | – | – | C. jejuni (D) | E. coli (C) | E. faecalis (D) | MRSA (A) | S. epidermidis (C) | S. pneumoniae (D) | – | – | Organism, effect: P. aeruginosa (microorganisms [2]): P. aeruginosa (A) |
| PF-203: peptide having multiple activities (SWKCHHLAI; Peptide with targeting and/or antimicrobial activity) | G B | – | – | – | – | – | – | S. epidermidis (A) | – | C. jeikeium (R) | – | – |
| PF-380: peptide having multiple activities (chain 1 KKIIPLITLFVVTLVG; chain 2 KKIIPLITLFVVTLVG; Peptide with targeting and/or antimicrobial activity) | G B | – | – | C. jejuni (D) | E. coli (C) | E. faecalis (C) | MRSA (D) | S. epidermidis (C) | S. pneumoniae (D) | – | – | Organism, effect: P. aeruginosa (microorganisms [2]): P. aeruginosa (A) |
| PF-431: peptide having multiple activities (chain 1 VAYAAICWW; chain 2 VAYAAICWW; Peptide with targeting and/or antimicrobial activity) | G B | MRSA (C) | S. pneumoniae (R) | – | – | – | – | – | – | – | – | Organism, effect (microorganisms [2]; C. jejuni): C. jejuni (R); Organism, effect (microorganisms [2]; E. faecalis): E. faecalis (R); Organism, effect (microorganisms [2]; S. epidermidis): S. epidermidis (M) |
| PF-063: peptide having multiple activities (IAAIIVLVLFQKGLLQIFNWILIQLQ; Peptide with targeting and/or antimicrobial activity) | G B | – | – | C. jejuni (D) | – | – | MRSA (M) | S. epidermidis (R) | S. pneumoniae (D) | C. jeikeium (D) | M. luteus (R) | Organism, effect: B. subtilis (microorganisms [2]; B. subtilis): B. subtilis (C); Organism, effect: P. aeruginosa (microorganisms [2]): P. aeruginosa (A) |
| PF-443: peptide having multiple activities (KLLYFFNYFENLQQVHLLVQL; Peptide with targeting and/or antimicrobial activity) | G B | MRSA (C) | S. pneumoniae (C) | – | – | – | – | – | – | – | – | Organism, effect (microorganisms [2]; E. coli): E. coli (R) |
| PF-042: peptide having multiple activities (LLLSYFRYTGALLQSLF; Peptide with targeting and/or antimicrobial activity) | G B | – | – | – | – | – | MRSA (R) | S. epidermidis (D) | – | C. jeikeium (S) | M. luteus (C) | – |
| PF-004: peptide having multiple activities (ARLSKAIIIAVIVVYHLDVRGLF; Peptide with targeting and/or antimicrobial activity) | G B | – | – | – | – | – | MRSA (R) | S. epidermidis (A) | – | C. jeikeium (A) | M. luteus (A) | – |
| MIHLTKQNTMEALHFIKQFYDMFFILNFNV [PF-040] | G B | – | – | C. jejuni (D) | E. coli (C) | – | MRSA (D) | S. epidermidis (D) | S. pneumoniae (D) | C. jeikeium (D) | M. luteus (D) | Organism, effect: B. subtilis (microorganisms [2]; B. subtilis): B. subtilis (D); Organism, effect: P. mirabilis (microorganisms [2]; P. mirabilis): P. mirabilis (C); Organism, effect: S. mutans (microorganisms [2]; S. mutans, class symbol): S. mutans (F) |
| PF-410: peptide having multiple activities (chain 1 FALELIALCRNLFIVYFP; chain 2 FALELIALCRNLFIVYFP; Peptide with targeting and/or antimicrobial activity) | G B | – | – | – | E. coli (S) | E. faecalis (C) | MRSA (M) | S. epidermidis (C) | – | – | – | – |
| PF-460: peptide having multiple activities (MEHVLPFQNTPPNIVIIYKDFTHLKSITFS; Peptide with targeting and/or antimicrobial activity) | G B | MRSA (C) | S. pneumoniae (R) | – | – | – | – | – | – | – | – | Organism, effect (microorganisms [2]; E. coli): E. coli (H); Organism, effect (microorganisms [2]; E. faecalis): E. faecalis (C); Organism, effect (microorganisms [2]; S. epidermidis): S. epidermidis (C) |
